Measured values reported in patent US20100130581A1, “COMPOUNDS AND METHODS FOR THE TREATMENT OF PAIN” (THE UNIVERSITY OF QUEENSLAND, priority 2006, published 2010).
“Also recorded” adds a separate entry of the source. Where a SMILES comes first, the peptide text is derived from it. [ ]: non-standard residue; d: D form. ξ: configuration not given here. Dmt = Cc1cc(O)cc(C)c1C[C@H](N)C(=O)O; ξGly(decyl) = CCCCCCCCCCC(N)C(=O)O; ξGly(octyl) = CCCCCCCCC(N)C(=O)O; ξAoc(2) = CCCCCCC(N)C(=O)O

Columns and labels:
[1] = molecular target: T1, μ-opioid receptor (Homo sapiens, UniProt P35372); assay: Whole cell-based binding assay, displacement of 3H-DAMGO
T1 construct: SH-SY5Y cells endogenously expressing μ- and δ-opioid receptors; endogenous in cells; host or cells: SH-SY5Y cells
T1 sequence (P35372 whole entry): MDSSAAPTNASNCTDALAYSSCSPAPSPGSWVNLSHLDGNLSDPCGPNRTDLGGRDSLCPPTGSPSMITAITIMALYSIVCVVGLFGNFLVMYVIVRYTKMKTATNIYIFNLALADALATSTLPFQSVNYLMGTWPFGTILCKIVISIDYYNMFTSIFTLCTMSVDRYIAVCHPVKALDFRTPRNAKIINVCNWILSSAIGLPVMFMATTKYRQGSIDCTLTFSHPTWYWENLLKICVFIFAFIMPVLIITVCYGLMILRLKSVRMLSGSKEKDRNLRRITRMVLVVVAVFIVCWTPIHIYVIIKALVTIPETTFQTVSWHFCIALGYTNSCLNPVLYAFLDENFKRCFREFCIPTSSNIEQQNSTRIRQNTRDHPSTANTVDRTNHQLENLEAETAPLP
Protocol: Media was removed and cells were washed with PBS before pre-incubation in 300 μL of binding buffer. Binding studies were performed with 100 μL of appropriate concentrations of ^3H-labeled DAMGO (a selective μ-opioid receptor agonist) and 100 μL of competitor or blank in binding buffer at 37° C. for 60 min. Competition binding experiments were performed using […] of ^3H-labelled DAMGO in the absence or presence of increasing concentrations of unlabeled derivatised endomorphins or derivatised endomorphin analogs. A 1 μM excess of unlabelled DAMGO was used to determine non-specific binding. Following incubation, the cells were washed with PBS and recovered from culture plates using 500 μL of […] before transfer to scintillation vials. Liquid scintillation cocktail (Ultima Gold, Packard, Meriden, USA) was added to these vials for counting in a liquid scintillation analyser. Data are expressed as the mean±SEM of % specific binding of triplicate determinations performed on at least three independent plates of cells. Data were plotted using the one-site competition functions of the PRISM program (Graphpad Inc., San Diego, USA) (see FIGS. 1a, 1b and 7).

[2] = test system: μ- and δ-opioid receptors; assay: Cell based assay of cAMP inhibition in forskolin treated SH-SY5Y cells; details: for IC50: Efficacy SH-SY5Y cell line; for Inhibit c-AMP (%): SH-SY5Y cell line, normalised to the % of cAMP inhibition seen by native endomorphin-1
Protocol: SH-SY5Y cells endogenously expressing μ- and δ-opioid receptors were cultured (100 μl) in a 96 well-plate and incubated (usually overnight) until 80% confluent. Once cells were ready for assay, Endo-1, Endo-2 and derivatives/analogs were diluted in DMEM culture medium containing 30 μM forskolin. The diluted derivatised endomorphins or derivatised endomorphin analogs were then applied to separate wells for agonist studies and co-incubated for antagonist studies. Cells were incubated with derivatised endomorphins or derivatised endomorphin analogs at 37° C. for 30 minutes, medium was aspirated and cells were lysed using lysis buffer from a cAMP Biotrak EIA kit (Amersham, Buckinghamshire, UK). An anti-cAMP antibody was added to the lysate, and the mixture incubated at 4° C. for 2 hours followed by the addition of a cAMP peroxidase conjugate, and incubated at 4° C. for a further hour. A 3,3′5,5′-tetramethylbenzidine (TMB) substrate provided by the Biotrak EIA kit was then incubated with cell lysate for 1 hour and finally 1 […] was added to facilitate a colour change, which is proportional to the amount of cAMP captured. A cAMP standard curve from 0 to 3200 fmol was also generated concurrently. Plates were then read by a plate reader at 450 nm and compared back to the cAMP standard curve. All data are compared to the maximum cAMP response to forskolin and are represented as the mean+/−standard error of three experiments performed in triplicate. All data are plotted using PRISM program (GraphPad, San Diego, Calif.) (see FIGS. 2a and 2b).

[3] = Plasma stability assay; format: in vitro ADME; details: male, human, plasma at 37° C.
Protocol: To measure the enzymatic stability of endomorphin-1 analogs in plasma, blood was taken from a healthy volunteer and the blood was centrifuged at 1700 rpm for 30 minutes to remove blood cells. The plasma was placed into a water bath heated at 37° C. and Endomorphin-1 and analog was added to give final concentrations of 0.7 mg/mL. Samples were incubated for varying time periods between 0 and 180 minutes. 50 μL of sample was taken at each time-point and 75 μL of acetonitrile was added to quench any enzyme activity. The samples were then placed on ice and upon completion of the assay, all samples were centrifuged at 9000 rpm for 3 minutes to remove all precipitated plasma proteins. The amount of intact peptide remaining in the supernatent of each sample was determined using RP HPLC by measuring the area under the curve of the peak at the appropriate retention time compared to a standard curve of concentration for each peptide (see FIG. 8).

[4] = test system: gastrointestinal motility; assay: Gut motility study (charcoal meal); format: in vivo, rat; details: rats
Protocol: Each dose of Compound 8, morphine and vehicle was administered to naïve rats as a 100 μL i.v. bolus injection via an indwelling cannula surgically implanted into the jugular vein at least 12 h prior to dose administration. Rats were anaesthetised with 3% isoflurane: 97% oxygen inhalational anaesthetic. A 1 cm incision was made on the right ventral side of the trachea. Using blunt dissection, the jugular vein was exposed and a small incision made to allow cannula insertion. The cannula was inserted into the vein, its integrity assessed, and tied into place using sterile sutures. The wound was sutured, the cannula was exteriorised at the back of the neck and secured using a metal spring. The rats were kept warm during surgical recovery. Animals were housed singly for the remainder of the experimentation period. Rats were inspected regularly from the time of surgery with respect to exploring behaviour, body weight and water intake. No adverse signs from the surgery were observed.
Charcoal meal was prepared by mixing 10% charcoal and 5% arabic gum in distilled, deionised water. Each rat received a single oral gavage of charcoal meal. Thirty minutes later the animal was euthanised using CO2 asphyxiation and the intestine was removed and measured. The distance from the pyloric sphincter to the caudal end of the charcoal and the total distance of the small intestine to the distal part of the ileum were measured in cm. Gastrointestinal motility was determined as the distance traveled by the charcoal relative to the total length of the small intestine, expressed as a percentage.
Each rat received a single bolus i.v. dose of Compound 8, morphine or vehicle. Animals received either vehicle (n=5), morphine at 1 mg/kg (n=3), 2 mg/kg (n=5), 10 mg/kg (n=5) and 30 mg/kg (n=2) or Compound 8 at 0.3 mg/kg (n=3), 1 mg/kg (n=5), 3 mg/kg (n=4), and 10 mg/kg (n=3). Thirty minutes after i.v. dosing an oral gavage of charcoal meal was administered under light (50%:50% CO2:O2) anaesthesia. Thirty minutes later the animal was euthanised via CO2 asphyxiation and the intestine was removed and the distance moved by the charcoal meal was measured.
The intestine was measured for distance of charcoal meal traveled in the small intestine and total length of small intestine. The % distance of charcoal transit was assessed relative to the total length of the small intestine. % inhibition of gastrointestinal motility by morphine or Compound 8 was calculated by the following equation: [(average % charcoal transit in vehicle rats)−(% distance charcoal transit)×100]/(average % charcoal transit in vehicle rats).

[5] = test system: homogenate of Caco-2 cells; assay: Enzymatic stability study in homogenized Caco-2 cells; format: in vitro ADME; details: Caco-2 cell line; graded by number of ♦ (up to 5), key not given
Protocol: Approximately 1×10^5 cells/mL concentration of cells were seeded onto the 96 well plate. […] The media was changed every other day. 21-28 days old cells were used for the experiments. the media was removed from the wells and each well washed with 100 μL 0.2% EDTA solution followed by washing three times with Hanks' balanced salt solution (HBSS) containing 25 mM Hepes (pH 7.4). Finally, 100 μL of this buffer was placed in each well and the plate cooled in ice. The monolayer of cells in each well was then disrupted by 2×1 second pulses with a Sonics Vibracell ultrasonic processor set at an amplitude of 30. The cell debris was then removed by centrifugation of the plate at 2000 rpm for 5 min. 80 μL cell homogenate supernatant of each well was then transferred to a clean 96 well plate, and 20 μL of HBSS-Hepes was added. Three of the wells' contents were set aside and assayed for total protein content using the Lowry assay. The compounds to be tested were dissolved in HBSS-Hepes buffer to a concentration of 200 μM.
This assay was performed at 37° C. […] The stability assay on each compound was conducted in triplicate and the concentrations averaged for each time point.

[6] = test system: CCI-rats; assay: Pain relief in CCI-rat model of neuropathic pain (von Frey paw withdrawal thresholds); format: in vivo

With `CCCCCCC(N)C(=O)N[C@@H](Cc1c(C)cc(O)cc1C)C(=O)N1CCC[C@H]1C(=O)N[C@@H](Cc1c[nH]c2ccccc12)C(=O)N[C@@H](Cc1ccccc1)C(N)=O` (single isomer, unassigned) [Compound 7] the Ki [1] was 0.071 nM, the IC50 [2] was 0.189 nM and the “Inhibit c-AMP (%)” value [2] was 153%. For the same molecule, the half-life at 0.7 mg/mL [3] was 4.55 min.
`CCCCCCC(N)C=N[C@@H](Cc1ccc(O)cc1)C(=O)N1CCC[C@H]1C(=O)N[C@@H](Cc1c[nH]c2ccccc12)C(=O)N[C@@H](Cc1ccccc1)C(N)=O` (some centres unmarked) [Compound 10] showed a Ki [1] of 42.4 nM.
With `CN1CC[C@]23c4c5ccc(O)c4O[C@H]2[C@@H](O)C=C[C@H]3[C@H]1C5` [morphine, reference compound] the “inhibition of gastrointestinal motility, in words” value ([4]; single i.v. bolus, 1 and 2 mg/kg) was “did not significantly (p>0.05) inhibit gastrointestinal motility” and the “inhibition of gastrointestinal transit, in words” value ([4]; single i.v. bolus, 10 and 30 mg/kg) was “significant (p<0.05) inhibition of gastrointestinal transit”.
For `CCCCCCC(NC(=O)[C@H](Cc1ccccc1)NC(=O)[C@H](Cc1c[nH]c2ccccc12)NC(=O)[C@@H]1CCCN1C(=O)[C@@H](N)Cc1ccc(O)cc1)C(N)=O` (some centres unmarked) [Compound 19] (H-YPWF[ξAoc(2)]-NH2), the “Enzymatic stability 2 h” value [5] was “♦”.
In the case of `CCCCCCCCC(N)C(=O)N[C@@H](Cc1c(C)cc(O)cc1C)C(=O)N1CCC[C@H]1C(=O)N[C@@H](Cc1c[nH]c2ccccc12)C(=O)N[C@@H](Cc1ccccc1)C(N)=O` (some centres unmarked) [Compound 8] (H-[ξGly(octyl)][Dmt]PWF-NH2), the Ki [1] is reported as 0.47 nM, the IC50 [2] is reported as 0.0634 nM and the half-life at 0.7 mg/mL [3] is reported as 41.4 min. For the same molecule, the “antinociception / baseline PWT responses, in words” value ([6]; contralateral hindpaw, CCI-rats, i.v., Endo1 1 mg/kg, Compound 8 0.3-3 mg/kg) was “did not significantly alter baseline PWT responses; also recorded: no significant antinociception in the contralateral hindpaw”, the “baseline PWT responses, in words” value ([6]; contralateral hindpaw, drug-naïve CCI-rats, i.v., Endo1 1.6 μmol/kg, Compound 8 1.2 μmol/kg) was “did not significantly alter baseline PWT responses” and the “anti-nociceptive effect, in words” value ([6]; contralateral hindpaw, s.c., 0.3-3 mg/kg, vs vehicle) was “did not produce a significant, dose-dependent anti-nociceptive effect; also recorded: did not produce dose-dependent anti-nociceptive pain relief”. The “extent and duration of anti-allodynia compared with Endo1” value ([6]; drug-naïve CCI-rats, ipsilateral hindpaw, i.v.) was “significantly (p<0.05) larger extent and duration of anti-allodynia”, the “anti-allodynic effect, in words” value ([6]; ipsilateral hindpaw, CCI-rats, single bolus i.v. doses, vs vehicle) was “significant, dose-dependent anti-allodynic effect; also recorded: dose-dependent relief of tactile allodynia” and the “anti-allodynic effect, in words” value ([6]; ipsilateral hindpaw, CCI-rats, single bolus s.c. doses 0.1-10 mg/kg, vs vehicle) was “significant, dose-dependent anti-allodynic effect; also recorded: dose-dependent relief of tactile allodynia”. The “dose-normalised area under the anti-allodynic response versus time curve (AUC), in words” value ([6]; ipsilateral hindpaw, i.v., CCI-rats, over 3 h) was “significantly greater (p<0.05) than that of both Endo1 and vehicle”, the “time of mean peak anti-allodynic response” value ([6]; ipsilateral hindpaw, i.v., highest dose tested) was roughly 0.5 h and the “mean duration of action” value ([6]; ipsilateral hindpaw, i.v., highest dose tested (3 mg/kg)) was greater than 3 h. For the same molecule, the “mean duration of action” value ([6]; ipsilateral hindpaw, i.v., lower doses (0.1 and 0.3 mg/kg)) was 2 to 3 h, the “time of mean peak anti-allodynic response” value ([6]; ipsilateral hindpaw, i.v., over doses tested) was 0.5 to 1 h and the “time of mean peak anti-allodynic response” value ([6]; ipsilateral hindpaw, s.c., 0.1-10 mg/kg) was 0.5 to 1 h. For the same molecule, the “time of mean peak anti-allodynic response” value ([6]; ipsilateral hindpaw, s.c., highest dose tested) was roughly 0.5 h, the “% inhibition of gastrointestinal transit, compared with i.v. morphine” value ([4]; i.v., 10 mg/kg) was “did not differ significantly (p>0.05)” and the “average gradient of log dose vs. % inhibition of gastrointestinal motility curve” value ([4]; single bolus i.v. doses, FIG. 15) was “lower than the average gradient for the curve corresponding to morphine”. For the same molecule, the “inhibition of gastrointestinal motility, in words” value ([4]; single i.v. bolus, 0.3, 1, 3 and 10 mg/kg) was “inhibited gastrointestinal motility at all doses assessed”.
For `CCCCCCCCCCC(N)C(=O)N[C@@H](Cc1ccc(O)cc1)C(=O)N1CCC[C@H]1C(=O)N[C@@H](Cc1c[nH]c2ccccc12)C(=O)N[C@@H](Cc1ccccc1)C(N)=O` (some centres unmarked) [Compound 2] (H-[ξGly(decyl)]YPWF-NH2), the Ki [1] was 35.5 nM and the “Inhibit c-AMP (%)” value [2] was 89%.
Work on `CCCCCCCCCCC(N)C(=O)N[C@@H](Cc1c(C)cc(O)cc1C)C(=O)N1CCC[C@H]1C(=O)N[C@@H](Cc1c[nH]c2ccccc12)C(=O)N[C@@H](Cc1ccccc1)C(N)=O` (some centres unmarked) [Compound 9] (H-[ξGly(decyl)][Dmt]PWF-NH2) yielded a Ki [1] of 0.735 nM, an IC50 [2] of 0.928 nM and a half-life at 0.7 mg/mL [3] of 20.3 min.
